Reference: the supplement of paper PMC10307832

Experiments:
Experiment in all cases: relative viability (nuclei count vs DMSO), 5 days (fraction); higher = more cells survive
201T = system: 201T
Procedure, shortened: (§1)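 Relative viability equals treated-well nuclei counts divided by vehicle-well nuclei counts. Counts came from 4× images of lung cancer cell lines grown in 1536-well plates for 5 days after pin-tool dosing on the day after seeding. Dosing used one drug alone or a fixed anchor-drug dose plus five library-drug doses (not always all listed) in √10 steps, and values are medians of duplicate plates.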

A-427 = system: A-427
Procedure, shortened: as §1

BEN = system: BEN
Procedure, shortened: as §1

EKVX = system: EKVX
Procedure, shortened: as §1

HARA = system: HARA
Procedure, shortened: as §1

HCC-15 = system: HCC-15
Procedure, shortened: as §1

HCC-44 = system: HCC-44
Procedure, shortened: as §1

HCC-827 = system: HCC-827
Procedure, shortened: as §1

LK-2 = system: LK-2
Procedure, shortened: as §1

NCI-H1437 = system: NCI-H1437
Procedure, shortened: as §1

NCI-H1666 = system: NCI-H1666
Procedure, shortened: as §1

NCI-H1792 = system: NCI-H1792
Procedure, shortened: as §1

NCI-H1975 = system: NCI-H1975
Procedure, shortened: as §1

NCI-H23 = system: NCI-H23
Procedure, shortened: as §1

NCI-H358 = system: NCI-H358
Procedure, shortened: as §1

NCI-H441 = system: NCI-H441
Procedure, shortened: as §1

NCI-H596 = system: NCI-H596
Procedure, shortened: as §1

NCI-H650 = system: NCI-H650
Procedure, shortened: as §1

NCI-H838 = system: NCI-H838
Procedure, shortened: as §1

SW 900 = system: SW 900
Procedure, shortened: as §1

CC1(C)CCC(c2ccc(Cl)cc2)=C(CN2CCN(c3ccc(C(=O)NS(=O)(=O)c4ccc(N[C@H](CCN5CCOCC5)CSc5ccccc5)c(S(=O)(=O)C(F)(F)F)c4)cc3)CC2)C1 [Navitoclax] + NC(=O)Nc1cc(-c2cccc(F)c2)sc1C(=O)N[C@H]1CCCNC1 [AZD7762] (partner 0.2 µM)
relative viability (201T; first compound 0.005 µM): 0.656 | relative viability (201T; first compound 0.01581 µM): 0.656 | relative viability (201T; first compound 0.05 µM): 0.41 | relative viability (201T; first compound 0.1581 µM): 0.565 | relative viability (201T; first compound 0.5 µM): 0.504 | relative viability (A-427; first compound 0.005 µM): 0.79 | relative viability (A-427; first compound 0.01581 µM): 0.822 | relative viability (A-427; first compound 0.05 µM): 0.639 | relative viability (A-427; first compound 0.1581 µM): 0.722 | relative viability (A-427; first compound 0.5 µM): 0.718 | relative viability (BEN; first compound 0.005 µM): 0.705 | relative viability (BEN; first compound 0.01581 µM): 0.667 | relative viability (BEN; first compound 0.05 µM): 0.647 | relative viability (BEN; first compound 0.1581 µM): 0.725 | relative viability (BEN; first compound 0.5 µM): 0.377 | relative viability (EKVX; first compound 0.005 µM): 0.728 | relative viability (EKVX; first compound 0.01581 µM): 0.784 | relative viability (EKVX; first compound 0.05 µM): 0.769 | relative viability (EKVX; first compound 0.1581 µM): 0.729 | relative viability (EKVX; first compound 0.5 µM): 0.777 | relative viability (HARA; first compound 0.005 µM): 0.385 | relative viability (HARA; first compound 0.01581 µM): 0.444 | relative viability (HARA; first compound 0.05 µM): 0.212 | relative viability (HARA; first compound 0.1581 µM): 0.228 | relative viability (HARA; first compound 0.5 µM): 0.32 | relative viability (HCC-15; first compound 0.005 µM): 0.868 | relative viability (HCC-15; first compound 0.01581 µM): 1.2 | relative viability (HCC-15; first compound 0.05 µM): 0.838 | relative viability (HCC-15; first compound 0.1581 µM): 1.03 | relative viability (HCC-15; first compound 0.5 µM): 1.05 | relative viability (HCC-44; first compound 0.005 µM): 0.935 | relative viability (HCC-44; first compound 0.01581 µM): 0.957 | relative viability (HCC-44; first compound 0.05 µM): 0.961 | relative viability (HCC-44; first compound 0.1581 µM): 0.915 | relative viability (HCC-44; first compound 0.5 µM): 0.881 | relative viability (HCC-827; first compound 0.005 µM): 0.274 | relative viability (HCC-827; first compound 0.01581 µM): 0.188 | relative viability (HCC-827; first compound 0.05 µM): 0.186 | relative viability (HCC-827; first compound 0.1581 µM): 0.199 | relative viability (HCC-827; first compound 0.5 µM): 0.235 | relative viability (LK-2; first compound 0.005 µM): 0.593 | relative viability (LK-2; first compound 0.01581 µM): 0.567 | relative viability (LK-2; first compound 0.05 µM): 0.295 | relative viability (LK-2; first compound 0.1581 µM): 0.358 | relative viability (LK-2; first compound 0.5 µM): 0.351 | relative viability (NCI-H1437; first compound 0.005 µM): 1.06 | relative viability (NCI-H1437; first compound 0.01581 µM): 1.23 | relative viability (NCI-H1437; first compound 0.05 µM): 1.06 | relative viability (NCI-H1437; first compound 0.1581 µM): 1.08 | relative viability (NCI-H1437; first compound 0.5 µM): 1.05 | relative viability (NCI-H1666; first compound 0.005 µM): 0.934 | relative viability (NCI-H1666; first compound 0.01581 µM): 0.883 | relative viability (NCI-H1666; first compound 0.05 µM): 0.738 | relative viability (NCI-H1666; first compound 0.1581 µM): 0.861 | relative viability (NCI-H1666; first compound 0.5 µM): 0.882 | relative viability (NCI-H1792; first compound 0.005 µM): 0.593 | relative viability (NCI-H1792; first compound 0.01581 µM): 0.77 | relative viability (NCI-H1792; first compound 0.1581 µM): 0.559 | relative viability (NCI-H1792; first compound 0.5 µM): 0.502 | relative viability (NCI-H1975; first compound 0.005 µM): 0.855 | relative viability (NCI-H1975; first compound 0.01581 µM): 0.799 | relative viability (NCI-H1975; first compound 0.05 µM): 0.713 | relative viability (NCI-H1975; first compound 0.1581 µM): 0.752 | relative viability (NCI-H1975; first compound 0.5 µM): 0.646 | relative viability (NCI-H23; first compound 0.005 µM): 0.28 | relative viability (NCI-H23; first compound 0.01581 µM): 0.33 | relative viability (NCI-H23; first compound 0.05 µM): 0.291 | relative viability (NCI-H23; first compound 0.1581 µM): 0.195 | relative viability (NCI-H23; first compound 0.5 µM): 0.23 | relative viability (NCI-H358; first compound 0.005 µM): 0.566 | relative viability (NCI-H358; first compound 0.01581 µM): 0.712 | relative viability (NCI-H358; first compound 0.05 µM): 0.545 | relative viability (NCI-H358; first compound 0.1581 µM): 0.485 | relative viability (NCI-H358; first compound 0.5 µM): 0.592 | relative viability (NCI-H441; first compound 0.005 µM): 1.12 | relative viability (NCI-H441; first compound 0.01581 µM): 1.19 | relative viability (NCI-H441; first compound 0.05 µM): 1.22 | relative viability (NCI-H441; first compound 0.1581 µM): 1.04 | relative viability (NCI-H441; first compound 0.5 µM): 1.24 | relative viability (NCI-H596; first compound 0.005 µM): 1.32 | relative viability (NCI-H596; first compound 0.01581 µM): 1.26 | relative viability (NCI-H596; first compound 0.05 µM): 0.919 | relative viability (NCI-H596; first compound 0.1581 µM): 1.05 | relative viability (NCI-H596; first compound 0.5 µM): 1.05 | relative viability (NCI-H650; first compound 0.005 µM): 0.946 | relative viability (NCI-H650; first compound 0.01581 µM): 1.12 | relative viability (NCI-H650; first compound 0.05 µM): 1.13 | relative viability (NCI-H650; first compound 0.1581 µM): 0.801 | relative viability (NCI-H650; first compound 0.5 µM): 0.937 | relative viability (NCI-H838; first compound 0.005 µM): 0.971 | relative viability (NCI-H838; first compound 0.01581 µM): 0.869 | relative viability (NCI-H838; first compound 0.05 µM): 0.937 | relative viability (NCI-H838; first compound 0.1581 µM): 0.97 | relative viability (NCI-H838; first compound 0.5 µM): 0.957 | relative viability (SW 900; first compound 0.005 µM): 0.538 | relative viability (SW 900; first compound 0.01581 µM): 0.651 | relative viability (SW 900; first compound 0.1581 µM): 0.573 | relative viability (SW 900; first compound 0.5 µM): 0.476
